Experimental data taken from the supplement of paper PMC11208160.

Assay: recombinant barcode read abundance after kanamycin selection (control-corrected) (log10(CPM+1)); higher = more efficient recombination; sequences stand for … in AGTGCAGAGAAAATCGGCCAGTTTTCTCTGCCTGCAGTCCGCATGCCGT…AGATTTATGCAGCGGACTGCCTTTCTCCCAAAGTGATAAACCGGACAGTATCATGGACCGGTTTTCCCGGTAATCCGTATTTGCAAGGTTGGTTTCACT; site = the 11-nt target
Method in brief: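 In a pooled screen in E. coli, targets were paired with target-binding loops of the IS621 bridge RNA. Each oligo carried a promoter, a target, a barcode and the first 104 bridge RNA bases driven by J23119, and was Gibson-cloned into a vector holding the remaining 73 bp and a T7-inducible recombinase before co-electroporation with a donor plasmid. Duplicate platings went onto chloramphenicol/ampicillin LB agar as the control or onto chloramphenicol/ampicillin/kanamycin with 0.1 mM IPTG. Recombination efficiency is the averaged, control-corrected count per million of barcodes at recombinant junctions, given as log10(CPM+1).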
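Note: IS621 recombinase and bridge RNA in Escherichia coli cells.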

Sequence | recombinant barcode read abundance (log10)
TAGCATGCTTGGGTTCTAACCTGTTGCAA (site TAGCATGCTTT) | 0.324
TAGCATGCTTGGGTTCTAACCTGTTGCAC (site TAGCATGCTAT) | 0.677
TAGCATGCTTGGGTTCTAACCTGTTGCAC (site TAGCATGCTCT) | 0.203
TAGCATGCTTGGGTTCTAACCTGTTGCAC (site TAGCATGCTGT) | 0.978
TAGCATGCTTGGGTTCTAACCTGTTGCAC (site TAGCATGCTTT) | 0.306
TAGCCTTCTTGGGTTCTAACCTGTTGCTA (site TAGCCTTCTCA) | 0.0251
TAGCCTTCTTGGGTTCTAACCTGTTGCTA (site TAGCCTTCTTA) | 0.129
TAGCGGCCTTGGGTTCTAACCTGTTGCGG (site CCAGTATCTAT) | 0.453
TAGCGGCCTTGGGTTCTAACCTGTTGCGG (site TAGCGGCCTCC) | 2.23
TAGGAAACTTGGGTTCTAACCTGTTGCGT (site TAGGAAACTAC) | 2.98
TAGGAAACTTGGGTTCTAACCTGTTGCGT (site TAGGACACTAC) | 0.0791
TAGGAAACTTGGGTTCTAACCTGTTGCGT (site TAGGAGACTAC) | 0.781
TAGGAAACTTGGGTTCTAACCTGTTGCGT (site TAGGATACTAC) | 0.447
TAGGCGACTTGGGTTCTAACCTGTTGCTA (site TAGGCGACTTA) | 0.454
TAGGCGACTTGGGTTCTAACCTGTTGCTA (site TAGGGCACTTA) | 0.156
TAGGCGACTTGGGTTCTAACCTGTTGCTT (site TAGACGACTAA) | 0.177
TAGGCGACTTGGGTTCTAACCTGTTGCTT (site TAGCCGACTAA) | 0.182
TAGGCGACTTGGGTTCTAACCTGTTGCTT (site TAGGCGACTAA) | 0.395
TAGGCGACTTGGGTTCTAACCTGTTGCTT (site TAGTCGACTAA) | 0
TAGGCGTCTTGGGTTCTAACCTGTTGCAG (site TAGCCTTCTCT) | 0.0835
TAGGCGTCTTGGGTTCTAACCTGTTGCAG (site TAGGCGTCTCT) | 2.27
TAGGCTCCTTGGGTTCTAACCTGTTGCAC (site TAGGCTCCTAT) | 0.2
TAGGCTCCTTGGGTTCTAACCTGTTGCAC (site TAGGCTCCTCT) | 0.0904
TAGGCTCCTTGGGTTCTAACCTGTTGCAC (site TAGGCTCCTGT) | 1.94
TAGGCTCCTTGGGTTCTAACCTGTTGCAC (site TAGGCTCCTTT) | 0.726
TAGGCTCCTTGGGTTCTAACCTGTTGCTT (site TACGGTCCTAA) | 0.0632

Sequence | recombinant barcode read abundance (log10)
TAGGCTCCTTGGGTTCTAACCTGTTGCTT (site TAGGCTCCTAA) | 0.277
TAGGCTGCTTGGGTTCTAACCTGTTGCAT (site TAGGCTGCTAT) | 0.882
TAGGCTGCTTGGGTTCTAACCTGTTGCAT (site TTGGGTGCTAT) | 0.0414
TAGGGCACTTGGGTTCTAACCTGTTGCTA (site TAGGCGACTTA) | 0.875
TAGGGCACTTGGGTTCTAACCTGTTGCTA (site TAGGGCACTTA) | 1.44
TAGGGTCCTTGGGTTCTAACCTGTTGCGG (site TAAGGTCCTCT) | 1.35
TAGGGTCCTTGGGTTCTAACCTGTTGCGG (site TAGGGTCCTCC) | 2.88
TAGGGTTCTTGGGTTCTAACCTGTTGCGG (site CAGGGTCCTCC) | 0.0906
TAGGGTTCTTGGGTTCTAACCTGTTGCGG (site TAGGGTTCTCC) | 3.01
TAGGTCACTTGGGTTCTAACCTGTTGCAT (site TAGATCACTAT) | 0.337
TAGGTCACTTGGGTTCTAACCTGTTGCAT (site TAGCTCACTAT) | 0.0353
TAGGTCACTTGGGTTCTAACCTGTTGCAT (site TAGGTCACTAT) | 2.43
TAGGTCACTTGGGTTCTAACCTGTTGCAT (site TAGTTCACTAT) | 0.0621
TAGTAACCTTGGGTTCTAACCTGTTGCTT (site TAGTAACCTAA) | 0.683
TAGTAACCTTGGGTTCTAACCTGTTGCTT (site TAGTACCCTCA) | 0.0923
TAGTACTCTTGGGTTCTAACCTGTTGCTC (site TAGTACTCTAA) | 0.096
TAGTACTCTTGGGTTCTAACCTGTTGCTC (site TAGTACTCTCA) | 0.429
TAGTACTCTTGGGTTCTAACCTGTTGCTC (site TAGTACTCTGA) | 1.52
TAGTACTCTTGGGTTCTAACCTGTTGCTC (site TAGTACTCTTA) | 0.124
TAGTATACTTGGGTTCTAACCTGTTGCTG (site TAGTATACTCA) | 1.16
TAGTATACTTGGGTTCTAACCTGTTGCTG (site TCGTATACTCC) | 0.0803
TAGTATCCTTGGGTTCTAACCTGTTGCCT (site TAGTAAGCTAG) | 0.433
TAGTATCCTTGGGTTCTAACCTGTTGCCT (site TAGTATCCTAG) | 1.04
TAGTATGCTTGGGTTCTAACCTGTTGCTA (site TAGTATCCTTA) | 0.0173
TAGTATGCTTGGGTTCTAACCTGTTGCTA (site TAGTATGCTTA) | 1.39
TAGTCAACTTGGGTTCTAACCTGTTGCGT (site TAGTCAACTAC) | 0.593

Sequence | recombinant barcode read abundance (log10)
TAGTCAACTTGGGTTCTAACCTGTTGCGT (site TGGCCAACTAC) | 0.0928
TAGTCAGCTTGGGTTCTAACCTGTTGCAC (site TAGTCAGCTGT) | 1.2
TAGTCAGCTTGGGTTCTAACCTGTTGCAC (site TGGTCGGCTGT) | 0.00985
TAGTCCTCTTGGGTTCTAACCTGTTGCTA (site TAGTCCTCTAA) | 0.0289
TAGTCCTCTTGGGTTCTAACCTGTTGCTA (site TAGTCCTCTCA) | 0.0797
TAGTCCTCTTGGGTTCTAACCTGTTGCTA (site TAGTCCTCTGA) | 0.0492
TAGTCCTCTTGGGTTCTAACCTGTTGCTA (site TAGTCCTCTTA) | 1.05
TAGTCCTCTTGGGTTCTAACCTGTTGCTC (site TAGTCCTCTAA) | 0.0149
TAGTCCTCTTGGGTTCTAACCTGTTGCTC (site TAGTCCTCTCA) | 0.0708
TAGTCCTCTTGGGTTCTAACCTGTTGCTC (site TAGTCCTCTGA) | 0.935
TAGTCCTCTTGGGTTCTAACCTGTTGCTC (site TAGTCCTCTTA) | 0.118
TAGTGAACTTGGGTTCTAACCTGTTGCAC (site GCCGAGCCTTG) | 0.0124
TAGTGAACTTGGGTTCTAACCTGTTGCAC (site TAGTGAACTGT) | 0.347
TAGTGCTCTTGGGTTCTAACCTGTTGCCA (site TAGTGCTCTAG) | 0.444
TAGTGCTCTTGGGTTCTAACCTGTTGCCA (site TAGTGCTCTCG) | 0.0477
TAGTGCTCTTGGGTTCTAACCTGTTGCCA (site TAGTGCTCTGG) | 0.00954
TAGTGCTCTTGGGTTCTAACCTGTTGCCA (site TAGTGCTCTTG) | 1.16
TAGTGCTCTTGGGTTCTAACCTGTTGCCG (site TAGTGCTCTAG) | 0.595
TAGTGCTCTTGGGTTCTAACCTGTTGCCG (site TAGTGCTCTCG) | 1.24
TAGTGCTCTTGGGTTCTAACCTGTTGCCG (site TAGTGCTCTGG) | 0.0187
TAGTGCTCTTGGGTTCTAACCTGTTGCCG (site TAGTGCTCTTG) | 0.355
TAGTGCTCTTGGGTTCTAACCTGTTGCTC (site TAGAGCTCTCA) | 0.185
TAGTGCTCTTGGGTTCTAACCTGTTGCTC (site TAGTGCTCTGA) | 1.07
TAGTGGACTTGGGTTCTAACCTGTTGCCA (site TAGTGGACTTG) | 0.466
TAGTGGACTTGGGTTCTAACCTGTTGCCA (site TAGTGGCCTTG) | 0.151
